Results reported in US7344829B2, “Methods for detecting the efficacy of anticancer treatments” (Board of Regents, the University of Texas System, priority 2000, dated 2008).
Marks after values point to notes of the source that are not given here.

Key:
[1] = test system: L3.6pl human pancreatic cancer cells; experiment: Immunohistochemical analysis of human pancreatic carcinoma in the pancreas of treated nude mice; type: in vivo; details: for PCNA+ tumor cells / TUNEL+ tumor cells: mean ± SD, 10 random 0.159-mm^2 fields at ×100; for CD (CD31, tumor MVD per field): staining with antibodies against CD31
From the text: Immunohistochemical (IHC) Determination of VEGF, IL-8, PCNA, CD31/PECAM-1, and EGF-R. Paraffin-embedded tissues were used for identification of VEGF, IL-8, EGF-R, and proliferating cell nuclear antigen (PCNA). Sections (4–6 μm thick) were mounted on positively-charged Superfrost slides (Fisher Scientific, Co., Houston, Tex.) and dried overnight. Sections were deparaffinized in xylene followed by treatment with a graded series of alcohol (100%, 95%, 80% ethanol/ddH2O [v/v]) and rehydrated in PBS, pH 7.5. Sections analyzed for PCNA were microwaved 5 min for “antigen retrieval” (Shi et al. 1991). All other paraffin-embedded tissues were treated with pepsin (Biomeda) for 15 min at 37° C. and washed with PBS. Frozen tissues used for identification of CD31/PECAM-1, and activated EGF-R were sectioned (8–10 μm), mounted on positively charged Plus slides (Fisher Scientific), and air-dried for 30 min. Frozen sections were fixed in cold acetone (5 min), acetone/chloroform (v/v) (5 min), and acetone (5 min) and washed with PBS. Immunohistochemical procedures were performed as described previously (Rak et al. 1996). Positive reaction was visualized by incubating the slides with stable 3,3′-diaminobenzidine (DAB) for 10–20 min or 3-amino-9-ethylcarbazole (AEC) after CD31 staining. The sections were rinsed with distilled water, counterstained with Gill's hematoxylin for 1 min, and mounted with Universal Mount (Research Genetics). […] Sections analyzed for activated EGF-R were pretreated with goat anti-mouse IgG F(ab)2 fragment (1:10 dilution in PBS) for 4–6 h before incubation with the primary antibody. The positive reaction following staining for activated EGF-R was enhanced with osmium tetraoxide (4% aqueous solution) at a 1:1000 dilution in ddH2O after incubation with DAB.
Immunofluorescence Double Staining for CD31/PECAM-1 (Endothelial Cells) and TUNEL (Apoptotic Cells). Frozen tissues were sectioned (8–10 μm), mounted on positively charged slides, air-dried for 30 min, and fixed in cold acetone for 5 min, acetone+chloroform (1:1) for 5 min, and acetone for 5 min. Samples were washed 3 times with PBS, incubated with protein-blocking solution containing 5% normal horse serum and 1% normal goat serum in PBS for 20 min at room temperature, and incubated with the appropriate dilution (1:400) of rat monoclonal anti-mouse CD31 antibody (human cross-reactive) over 18 h at 4° C. After the samples were rinsed 4 times for 3 min each with PBS, the slides were incubated with the appropriate dilution (1:200) of secondary goat anti-rat conjugated to Texas Red for 1 h at room temperature in the dark. Samples were washed twice with PBS containing 0.1% Brij and washed with PBS for 5 min.
TUNEL was performed using a commercially available apoptosis detection kit with the following modifications: samples were fixed with 4% paraformaldehyde (methanol-free) for 10 min at room temperature, washed twice with PBS for 5 min, and then incubated with 0.2% Triton X-100 for 15 min at room temperature. After two washes of 5 min each with PBS, the samples were incubated with equilibration buffer (from kit) for 10 min at room temperature. The equilibration buffer was drained, and reaction buffer containing equilibration buffer, nucleotide mix, and TdT enzyme was added to the tissue sections and incubated in a humid atmosphere at 37° C. for 1 h in the dark. The reaction was terminated by immersing the samples in 2×SSC for 15 min. Samples were washed 3 times for 5 min to remove unincorporated fluorescein-dUTP. For quantification of […], the samples were incubated with 300 μg/ml of Hoechst stain for 10 min at room temperature. Fluorescent bleaching was minimized by treating slides with an enhancing reagent (Prolong solution). […]

EGF-R = target: T1, EGF-R (Homo sapiens, UniProt P00533); experiment: Western blot analysis of EGF-R autophosphorylation in L3.6pl cells; type: cell-based; details: concentration of 10 μM (data not shown)
T1 construct: endogenous in cells; host or cells: L3.6pl human pancreatic cancer cells
T1 sequence (P00533 25-1210): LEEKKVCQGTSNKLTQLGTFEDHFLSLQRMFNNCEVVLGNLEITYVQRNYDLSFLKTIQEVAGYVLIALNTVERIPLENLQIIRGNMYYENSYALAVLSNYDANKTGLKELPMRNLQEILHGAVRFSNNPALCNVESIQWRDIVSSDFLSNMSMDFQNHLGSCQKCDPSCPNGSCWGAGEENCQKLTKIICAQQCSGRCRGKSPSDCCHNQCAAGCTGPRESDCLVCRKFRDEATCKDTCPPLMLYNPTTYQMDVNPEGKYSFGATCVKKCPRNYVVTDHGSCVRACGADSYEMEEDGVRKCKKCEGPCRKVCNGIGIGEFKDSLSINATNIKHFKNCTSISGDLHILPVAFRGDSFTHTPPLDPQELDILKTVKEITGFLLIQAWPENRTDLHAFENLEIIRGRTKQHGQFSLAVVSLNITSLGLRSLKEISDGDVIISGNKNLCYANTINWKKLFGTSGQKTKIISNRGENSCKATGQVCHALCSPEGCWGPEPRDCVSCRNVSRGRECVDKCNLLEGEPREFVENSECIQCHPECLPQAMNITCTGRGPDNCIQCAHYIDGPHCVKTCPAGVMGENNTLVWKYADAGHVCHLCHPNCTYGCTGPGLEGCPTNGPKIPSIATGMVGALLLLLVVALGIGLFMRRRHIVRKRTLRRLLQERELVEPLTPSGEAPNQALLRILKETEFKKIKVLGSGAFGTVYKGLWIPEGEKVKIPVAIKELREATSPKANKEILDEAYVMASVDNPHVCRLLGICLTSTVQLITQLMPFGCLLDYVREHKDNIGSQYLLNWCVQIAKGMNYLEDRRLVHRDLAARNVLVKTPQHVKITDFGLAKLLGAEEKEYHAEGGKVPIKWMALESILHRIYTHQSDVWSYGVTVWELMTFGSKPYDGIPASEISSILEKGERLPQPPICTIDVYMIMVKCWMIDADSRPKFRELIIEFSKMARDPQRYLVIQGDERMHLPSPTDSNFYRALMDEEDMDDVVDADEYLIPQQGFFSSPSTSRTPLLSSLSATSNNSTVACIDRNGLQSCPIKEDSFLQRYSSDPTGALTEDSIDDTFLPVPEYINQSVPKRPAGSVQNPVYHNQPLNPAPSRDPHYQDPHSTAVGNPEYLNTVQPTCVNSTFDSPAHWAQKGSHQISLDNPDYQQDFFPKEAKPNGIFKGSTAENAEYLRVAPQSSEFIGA
Description: Western Blot Analysis of EGF-R Autophosphorylation following Treatment with PKI166. […] without 40 ng/ml rhEGF for 10 min, washed, and scraped into PBS containing 5 mM EDTA and 1 mM Na Orthovanadate, and centrifuged, and the pellet resuspended in lysis buffer (20 mM Tris-HCl, pH 8.0, 137 mM NaCl, 10% glycerol, 2 mM EDTA, 1 mM phenylmethylsulfonyl fluoride, 20 μM leupeptin, and 0.15 U/ml aprotinin) sonicated, and centrifuged to recover […] protein. Immunoprecipitation was performed using Mab anti-EGF-R (clone EGF-RI) as described previously (Perrotte et al. 1999; Parker et al. 1998). Immunoprecipitates were analyzed on 7.5% NaDodSO4-PAGE and transferred onto 0.45-μm nitrocellulose membranes. The filters were blocked with 3% bovine serum albumin in TDS (20 mM Tris-HCl, pH 7.5, 150 mM NaCl), probed with either polyclonal sheep anti-human EGF-R (1:1000) or monoclonal anti-phosphotyrosine (Mab 4G10) (1:2000) in TTBS (0.1% Tween 20 in TBS), and incubated with horseradish peroxidase-conjugated donkey anti-sheep IgG (1:2000) (Sigma Immunochemicals, St. Louis, Mo.) or sheep anti-mouse IgG (1:2000), respectively, in TTBS. Protein bands were visualized by ECL detection system. For an additional experiment, serum-starved L3.6pl cells were treated with gemcitabine (10 nM) with or without PKI166 (0.05, 0.5 μM) for 1 h, and then incubated with or without rhEGF (40 ng/ml) for 10 min. […]

L3.6pl cells = experiment: In vitro cytotoxicity assay (MTT); type: cell-based; details: Homo sapiens, 144 h, 6 days
Description: In Vitro Cytotoxicity Assay. In all assays, 700–1000 tumor cells were seeded into 38-mm^2 wells of flat-bottomed 96-well plates in quadruplicate and allowed to adhere overnight. The cultures were then washed and refed with medium (negative control) or medium containing PKI166 with or without gemcitabine. […] Following a 2–4 h incubation in medium containing 0.42 mg/ml of MTT, the cells were lysed in DMSO. The conversion of MTT to formazan by metabolically viable cells was monitored by an MR-5000 96-well microtiter plate reader at 570 nm (Dynatech, Inc., Chantilly, Va.). Growth inhibition was calculated from the formula: Cytostasis (%)=[1−(A/B)]×100, where A is the absorbance of treated cells and B is the absorbance of the control cells.

VEGF = experiment: In vitro expression of VEGF by L3.6pl cells (ELISA); type: cell-based, human; details: 72 h, 1 μM PKI166 or 10 nM gemcitabine, control 1400 pg/ml
Description: (§1) In vitro Expression of VEGF and IL-8. L3.6pl cells (2000 cells/38 mm^2 well) were plated into 96-well plates in 200 μl supplemented DMEM containing 5% FBS for 24 h, and then treated with 0.05, 0.5, or 1 μM PKI166. Supplemented DMEM (5% FBS) and human IgG (10 μg/ml) served as controls. Seventy-two hours later, the culture supernatants were collected, and the level of VEGF and IL-8 proteins (corrected for cell number) were determined by Quantikine ELISA kits.

IL-8 = experiment: In vitro expression of IL-8 by L3.6pl cells (ELISA); type: cell-based, human; details: 72 h, 1 μM PKI166 or 10 nM gemcitabine, control 1440 pg/ml
Description: as §1

[2] = test system: L3.6pl human pancreatic cancer cells; experiment: Preliminary gemcitabine dose-response experiment in nude mice with pancreatic tumors; type: in vivo; details: gemcitabine 250 mg/kg and 500 mg/kg compared to 125 mg/kg (data not shown)
Description: To evaluate the therapeutic effect of gemcitabine in this animal model, a preliminary dose-response experiment was performed. […] All mice were killed on day 35. The volume of tumors and incidence of metastasis were determined.

[3] = test system: L3.6pl human pancreatic cancer cells
From the text: Animals and Orthotopic Implantation of Tumor Cells. Male athymic nude mice (NCr-nu) were purchased from the Animal Production Area of the National Cancer Institute-Frederick Cancer Research and Development Center (Frederick, Md.). The mice were housed and maintained in laminar flow cabinets under specific pathogen-free conditions in facilities approved by the American Association for Accreditation of Laboratory Animal Care and in accordance with current regulations and standards of the U. S. Department of Agriculture, U.S. Department of Health and Human Services, and the National Institutes of Health. The mice were used in accordance with institutional guidelines when they were 8 to 12 wk old.
Orthotopic Implantation of Tumor Cells. To produce tumors, L3.6pl cells were harvested from subconfluent cultures by a brief exposure to 0.25% trypsin and 0.02% EDTA. Trypsinization was stopped with medium containing 10% FBS, and the cells were washed once in serum-free medium and resuspended in HBSS. Only suspensions consisting of single cells with greater than 90% viability were used for the injections. Cells were injected into the pancreas as described previously. The mice were killed when moribund (5–6 wk). The size and weight of the primary pancreatic tumors, the incidence of regional (celiac and paraaortal) lymph node metastasis, and the number of liver metastases were recorded. Histopathology confirmed the nature of the disease.
Therapy of Established Human Pancreatic Carcinoma Tumors Growing in the Pancreas of Athymic Nude Mice. Seven days after implantation of tumor cells into the pancreas, 5 mice were killed and the presence of tumor lesions was determined. At this time, the median tumor volume was 18 mm^3. Histological examination confirmed the lesions to be actively growing pancreatic cancer.
Necropsy Procedures and Histological Studies. Mice were euthanized and the body weight was determined. Primary tumors in the pancreas were excised and weighed. […] Visible liver metastases were counted with the aid of a dissecting microscope and processed for H&E staining. All macroscopically enlarged regional (celiac and paraaortal) lymph nodes were harvested, and the presence of metastatic disease was confirmed by histology.

[4] = mean ± SD absorbance, ratio of tumor cell to normal pancreatic gland expression ×100, day 35

Nc1ccn([C@@H]2O[C@H](CO)[C@@H](O)C2(F)F)c(=O)n1 [gemcitabine]
ratio of PCNA-positive over TUNEL-positive cells ([1]; calculated): 1.1 | Staining of pancreatic tumors for activated (phosphorylated) EGF-R ([1]; immunohistochemistry of tumors from treated nude mice): stained positive | IL-8 [1, 4]: 299 ± 43 | VEGF [1, 4]: 298 ± 54 | PCNA+ tumor cells ([1]; day 35): 237±66 positive cells/field | TUNEL+ tumor cells ([1]; day 35): 225±95 positive cells/field | PCNA+ tumor cells ([1]; day 35, listed as Gemcitabine): 237 ± 66 positive cells/field | TUNEL+ tumor cells ([1]; day 35, listed as Gemcitabine): 225 ± 95^e positive cells/field | CD (CD31, tumor MVD per field) ([1]; day 35): 52±18 | CD (CD31, tumor MVD per field) ([1]; day 35, listed as Gemcitabine): 52 | Effect on autophosphorylation of EGF-R (EGF-R): did not affect | IC50 (L3.6pl cells; gemcitabine alone): 880 nM | IC50 (L3.6pl cells; in the presence of PKI166 (0.03 μM)): 520 nM | VEGF in culture supernatant (VEGF): 1280 pg/mL | IL-8 in culture supernatant (IL-8): 2000 pg/mL | Effect of increasing the dose on pancreatic tumor growth and metastasis [2]: did not further reduce | Histologically positive regional lymph node metastases, share of animals ([3]; day 35): 90% | Reduction of growth of primary pancreatic neoplasms ([3]; human pancreatic carcinoma in pancreas of nude mice): 45%
